Results on 2 compounds are retold here after US12207672B2, “Compounds that modulate GPR92 receptor activity and pet food products containing the same” (MARS, INCORPORATED, priority 2018, dated 2025).

This experiment deals with fGPR92 receptor. Put plainly: fGPR92 activation in CHO-K1 cells, calcium sensitive fluorescent dye (FLIPR Tetra), agonist mode. The note with it: CHO-K1 cells stably expressing fGPR92. The class given is cell-based, cat. How it is done:
The present example describes the activation of the cat GPR92 receptor (fGPR92) by various compounds and compositions in vitro. Samples that can function as GPR92 agonists were identified by in vitro functional characterization. The effectiveness of a sample in activating the fGPR92 receptor was evaluated. Methods: CHO-Kl cells stably expressing fGPR92 were used to screen 118 test samples to identify samples that can activate the fGPR92 receptor. Activation of the fGPR92 receptor was detected by changes in intracellular calcium levels using a calcium sensitive fluorescent dye. Cells without fGPR92 receptor expression (mock cells) were used as a control. A FLIPR® Tetra system was used for data capture. Each sample was first tested for its ability to activate fGPR92 at three different dose levels in both agonist mode and positive allosteric modulator mode. Active samples were further tested at eight different dose levels in both agonist mode and positive allosteric modulator mode. Peptone from Sigma-Aldrich (product number: P5905; CAS number 73049-73-7) was used in this Example. Dose response curves were then generated for each sample. Menthol and cinnamaldehyde were used as negative controls. In the agonist mode (AGO), 14:0 LPA at 10 μM (EC100) was used as a positive control and the assay buffer was used as a negative control. […]

With `CC(C)[C@@H]1CC[C@@H](C)C[C@H]1O` [Menthol, L-menthol], the “activation of fGPR92 receptor” value is on record as “did not activate fGPR92 receptor”.
For `O=C/C=C/c1ccccc1` [cinnamaldehyde, cinnamic aldehyde] the value was “did not activate fGPR92 receptor”.
